Data as given in US8592419B2, “Ceramides and apoptosis-signaling ligand” (MUSC Foundation for Research Development, priority 2004, dated 2013).

Legend:
p53 = assay: Immunoblot of p53; assay type: cell-based, human; conditions: DU145 cells, 10 μM
Protocol: (§1) Immunoblot analysis. Cells were seeded in 60mm plates as described above and treated accordingly. Cells were lifted by gently scraping the plates, washed once with ice cold PBS and then lysed in lysis buffer (PBS, 1% Triton X-100, 10% glycerol) containing protease inhibitors pepstatin A (0.5 μg/ml), leupeptin (0.5 μg/ml), aprotinin (5 μg/ml), and PMSF (100 μg/ml) for 10 minutes on ice. Insoluble material was removed by centrifugation at 14,000 rpm for 15 minutes at 4° C. The supernatants were then supplemented with SDS at a final concentration of 2% and stored at −80° C. Protein concentrations were determined using the DC Protein Assay (BioRad Laboratories; Hercules, CA, USA) according to the manufacturer's instructions. 50 μg of protein per sample (unless otherwise indicated) were separated on NuPAGE 4-12% Bis-Tris gels (Invitrogen; Carlsbad, CA, USA) and transferred to nitrocellulose membranes (BioRad). Following transfer, membranes were blocked for 1 hour at room temperature in Tris-buffered saline (TBS) containing 0.1% Tween-20 and 5% nonfat dry milk and incubated overnight at 4° C. with primary antibody at a dilution of 1:2,000(actin), 1:1,000(cytochrome c, COX IV, Bax, Bak, p53, p38, P-p38), 1:500(P-JNK, JNK), 1:250 (AC, p73), or 1:400(LAMP-1, cathepsin B). Overnight incubations were performed in 5% milk in TBS-Tween. […]

Bax = assay: Immunoblot of Bax; assay type: cell-based, human; conditions: PC-3 cells, 10 μM
Protocol: as §1

p73 = assay: Immunoblot of p73; assay type: cell-based, human
Protocol: Immunoblot analysis. Cells were seeded in 60mm plates as described above and treated accordingly. Cells were lifted by gently scraping the plates, washed once with ice cold PBS and then lysed in lysis buffer (PBS, 1% Triton X-100, 10% glycerol) containing protease inhibitors pepstatin A (0.5 μg/ml), leupeptin (0.5 μg/ml), aprotinin (5 μg/ml), and PMSF (100 μg/ml) for 10 minutes on ice. Insoluble material was removed by centrifugation at 14,000 rpm for 15 minutes at 4° C. The supernatants were then supplemented with SDS at a final concentration of 2% and stored at −80° C. Protein concentrations were determined using the DC Protein Assay (BioRad Laboratories; Hercules, CA, USA) according to the manufacturer's instructions. 50 μg of protein per sample (unless otherwise indicated) were separated on NuPAGE 4-12% Bis-Tris gels (Invitrogen; Carlsbad, CA, USA) and transferred to nitrocellulose membranes (BioRad). Following transfer, membranes were blocked for 1 hour at room temperature in Tris-buffered saline (TBS) containing 0.1% Tween-20 and 5% nonfat dry milk and incubated overnight at 4° C. with primary antibody at a dilution of 1:2,000(actin), 1:1,000(cytochrome c, COX IV, Bax, Bak, p53, p38, P-p38), 1:500(P-JNK, JNK), 1:250 (AC, p73), or 1:400(LAMP-1, cathepsin B). Overnight incubations were performed in 5% milk in TBS-Tween. Following overnight incubation, membranes were washed three times for 10 minutes each in TBS-Tween and incubated for 1 hour at room temperature with secondary antibody in 5% milk TBS-Tween at a dilution 1:5,000 (goat anti-mouse IgG) or 1:50,000 (goat anti-rabbit). Membranes were then washed three times more and incubated for 5 minutes at room temperature with Super Signal HRP substrate (Pierce Biotechnology Inc.; Rockford, IL, USA).

LAMP-1 = assay: Immunoblot of LAMP-1; assay type: cell-based, human; conditions: DU145 cells, 12 hours LCL204
Protocol: as §1

cathepsin B = assay: Cathepsin B translocation to cytosol (subcellular fractionation, Western blot, activity assay); assay type: cell-based, human; conditions: DU145 cells
Protocol: Subcellular fractionation. For cytochrome c immunoblot, cells were seeded and treated as described above. Cells were harvested at 4, 12, or 24 hours after treatment as described previously (62) and proteins (15 μg) were separated by gel electrophoresis and immunoblotted for cytochrome c as above. The protocol for separating cytosolic and heavy membrane fractions is a modified version of that used by Desahger et al. (63). Briefly, cells were seeded and treated in 60 mm plates as described above. Cells were harvested at 0, 0.5, 1, and 2 hours after treatment, washed once in PBS, and gently resuspended in isotonic mitochondrial buffer (210 mM mannitol, 70 mM sucrose, 1 mM EDTA, 10 mM HEPES, pH 7.0) supplemented with protease inhibitors. Cells were then transferred to 1.5 mL microcentrifuge tubes and homogenized using 40 strokes with a polished (fine grain sandpaper) Teflon pestle. Fractions were separated using differential centrifugation as described in the reference. All fractions were stored at −80° C. Cytosolic and heavy membrane fractions (30 and 15 μg, respectively) were separated on NuPAGE gels and immunoblotted as described above. […] Enzyme activity per 50 μg lysate was measured using the fluorogenic cathepsin B substrate 111 (Calbiochem) according to the manufacturer's protocol.

DU145 xenografts = assay: DU145 prostate cancer xenografts in nude mice
Description: One of the problems with cancer gene therapy as it is currently practiced is the issue of delivery of gene therapy vectors to every tumor cell in order to effect death of the tumor. […] The inventors devised a model of molecular cell killing in a solid tumor in which only perhaps up to 30% of the cells are infected by the virus. Since the ceramide analogs of the invention are acid CDase inhibitors which sensitize the cells to this type of cell death, an in vivo experiment in which prostate cancer xenografts, in this case DU145 cells, were grown in nude mice and treated sequentially with the acid Cdase inhibitor LCL204 followed by the AdGFPFasL virus. […] The LCL204 was administered at 0, 72 and 144 hours and the virus (1×10^9 pfu) at 10 and 82 hours.

p38 MAPK = assay: Immunoblot of phosphorylated p38 MAPK; assay type: cell-based, human; conditions: PPC-1/pcDNA3 vector control cells
Protocol: as §1

Caspases 3 and 7 = assay: Caspase 3/7 activity assay; assay type: cell-based, human; conditions: DU145 cells, 24 hours treatment
Protocol: Caspase 3/7 Activity Assay. Cells were seeded overnight in clear bottom black 96 well plates (Corning; Acton Mass.). The next day, medium was removed and replaced with medium containing vehicle or LCL204 at indicated concentrations. After 24 hours treatment, Caspases 3 and 7 activities were measured using Apo-ONE Homogeneous Caspase 3/7 assay according to the manufacturer's instructions (Promega). Fluorescence was measured using a Fluostar dual fluorescence/absorbance plate reader (BMG Laboratories; Durham, N.C., USA) with 485 nm excitation and 520 nm emission filter set.

[1] = system: mitochondria membrane potential in DU145 cells; assay: Mitochondria membrane potential measurement (JC-1); assay type: cell-based, human; conditions: 5 μM
Protocol: Mitochondria membrane potential measurement. Cells were seeded at a density of 7.49×10^5 cells per plate in 60 mm plates overnight. The next day, media was replaced with media containing vehicle control or LCL204 (5 μM). Cells were lifted using Cell Stripper (Mediatech), washed twice in PBS, and resuspended in 3 ml 1×JC-1 reagent solution (dissolved in medium). Samples were incubated at 37° C. for 15 minutes, washed twice with PBS, and resuspended in 0.5 ml growth medium before analysis by flow cytometry using a Beckton-Dickinson FACSCalibur (590 nm/527 nm emission). A minimum of 10,000 events were scored for each sample.

cytochrome c = assay: Cytochrome c release into the cytosol (Western blot); assay type: cell-based, human; conditions: 5 or 10 μM, DU145 cells
Protocol: as §1, with “(BioRad).” for “(BioRad). Following transfer, membranes were blocked for 1 hour at room temperature in Tris-buffered saline (TBS) containing 0.1% Tween-20 and 5% nonfat dry milk and incubated overnight at 4° C. with primary antibody at a dilution of 1:2,000(actin), 1:1,000(cytochrome c, COX IV, Bax, Bak, p53, p38, P-p38), 1:500(P-JNK, JNK), 1:250 (AC, p73), or 1:400(LAMP-1, cathepsin B). Overnight incubations were performed in 5% milk in TBS-Tween.”
Subcellular fractionation. […] Enzyme activity per 50 μg lysate was measured using the fluorogenic cathepsin B substrate 111 (Calbiochem) according to the manufacturer's protocol.

CCCCCCCCCCCCCCN[C@H](CO)[C@H](O)c1ccc([N+](=O)[O-])cc1.Cl [LCL204, (1R,2R) D-threo-2-N-Tetradecylamino-1-(4′-nitrophenyl)-1,3-propandiol hydrochloride]
p53 induction (p53): induced p53 in DU145 cells after four hours
Bax protein levels (Bax): unaffected
p73β induction (p73; PC-3 cells, 10 μM): p73β induction was detected after only two hours
p73β induction (p73; PPC-1/pcDNA3 cells): time-dependent p73β induction
LAMP-1 expression (LAMP-1): increases
time within which cytosolic cathepsin B activity increased (cathepsin B; 10 μM, enzyme activity assay): ≤ 30 min
time within which active cathepsin B was detected in the cytosolic fraction (cathepsin B; Western blot): ≤ 30 min
tumor burden, combination of LCL204 and AdGFPFasL virus (DU145 xenografts; LCL204 at 0, 72 and 144 hours followed by virus at 10 and 82 hours): effectively reduce the tumor burden
tumor growth, single agent (DU145 xenografts; LCL204 systemically at 0, 72 and 144 hours, virus 1×10^9 pfu at 10 and 82 hours): some modest effects
observable effect on the animal (DU145 xenografts; up to 75 mg/kg): no observable effect on the animal
time by which p38 MAPK phosphorylation was induced (p38 MAPK): ≤ 90 min
executioner caspase activity (Caspases 3 and 7): dose-dependent executioner caspase activity
earliest observed decrease in ΔΨm [1]: 2 h
time by which cytochrome c release into the cytosol was detected (cytochrome c): ≤ 4 h
